Where a chain is given by its changes, count along the chain named.
Experiments:
[1] = biological target: T1, GST-ARV1 (full-length ARV1) (Homo sapiens, UniProt Q9H2C2); experiment: Protein-lipid liposome binding assay (ultracentrifugation, Western blot); conditions: protein detected in final pellet
T1 construct: Expresses full length ARV1; made in house; host or cells: E. coli BL21 (pGEX-4T1)
T1 sequence (Q9H2C2 1-271): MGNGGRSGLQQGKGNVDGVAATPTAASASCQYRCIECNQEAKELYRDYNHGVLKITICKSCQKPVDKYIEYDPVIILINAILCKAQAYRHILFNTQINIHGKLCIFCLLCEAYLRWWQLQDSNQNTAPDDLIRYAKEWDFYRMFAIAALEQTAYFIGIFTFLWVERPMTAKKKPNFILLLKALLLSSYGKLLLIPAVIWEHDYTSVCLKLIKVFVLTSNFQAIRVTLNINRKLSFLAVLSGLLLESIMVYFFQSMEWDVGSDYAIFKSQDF
Procedure: Lyophilized lipids were reconstituted in chloroform at 10 mg/ml and stored in glass tubes with Teflon tops at −20 °C until use. One milliliter of 10 mg/ml stock was dried under a stream of nitrogen in a glass tube until a lipid cake/film was formed. The lipid cake was then rehydrated in BLT rehydration buffer (5 mM Tris/HCl, pH 7.4, containing 150 mM NaCl) to a concentration of 1 mg/ml. Lipid suspensions were subjected to three freeze/thaw cycles using a dry ice ethanol/[…] water bath to encapsulate the buffer and improve liposome formation. The suspension and lipid extruder were equilibrated to temperature for 10 min and liposomes were extruded using […] polycarbonate membranes (Avestin). Liposomes were made by mixing stock lipid PL (1 mg/ml) with PC (10 mg/ml).
Cholesterol composition liposomes were rehydrated with cholesterol rehydration buffer (10 mM Hepes, pH 7.4, containing 150 mM KCl).
Liposomes were serial diluted in floatation buffer (100 mM NaCl, 2 mM EDTA, pH 5.5) to a final concentration of 0.1 mg/ml. Nine hundred microliters of liposome solution was placed in clear ultracentrifuge tubes and mixed with 100 μl of 0.01 μg/ml of protein. The liposome/protein solution was incubated at room temperature for 1 h with occasional shaking. An initial 100 μl of liposome/protein solution (liposomes) was removed and the remaining 900 μl was centrifuged at 50,000g for 20 min at 4 °C. The pellet was resuspended in 800 μl of fresh floatation buffer, centrifuged as above, and 800 μl of supernatant was removed (wash 1). This was repeated a second time and again 800 μl of supernatant was removed (wash 2). The final pellet was resuspended in 100 μl of floatation buffer plus SDS treatment buffer (pellet). Thirty microliters of each fraction was run on a 15% SDS-PAGE gel and probed with an anti-GST monoclonal antibody at a 1:1500 dilution.

6XHIS-N98 C58/61A = biological target: T2, 6XHIS-N98 C58/61A (Homo sapiens, UniProt Q9H2C2, C58A/C61A); experiment: HTRF phospholipid lipid-binding assay, mutant; set-up: key: NC, no change; conditions: biotinylated lipid; NC = no change vs N98
T2 construct: made in house; host or cells: E. coli BL21
T2 sequence (Q9H2C2 1-98 C58A/C61A): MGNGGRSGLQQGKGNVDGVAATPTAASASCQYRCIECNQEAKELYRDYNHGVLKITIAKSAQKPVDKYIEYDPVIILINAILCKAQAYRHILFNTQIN
Source text: (§1) An HTRF assay was developed for 6XHIS-ARV1-N98-lipid binding. HTRF measures analyte interactions through fluorescence resonance energy transfer technology and time-resolved measurements ([53]). The interaction between two molecules can be quantified through binding each individual molecule involved with a fluorescent label and then analyzing the transfer of energy between the initial donor fluorophore and the secondary acceptor fluorophore. Following excitation of the first fluorophore, transfer of energy can only occur if the molecules bound with the fluorescent tags are within proximity to each other.
(§2) Assays were plated in 384-well flat bottom microplates (Greiner Bio, catalog #784075-25). Proteins were diluted using binding buffer (20 mM Hepes buffer, pH 7.2, containing 0.1% BSA, and 0.01% Tween20) to a stock concentration of 0.75 μM, and biotinylated phospholipids were dispensed, dried under nitrogen gas, and resuspended in binding buffer to a stock concentration of 50 μM. The lipid stock solution was diluted by 1:2 for a series of 12 serial dilutions. For the assay, in sequential order, 6 μl of binding buffer was loaded into the plate in triplicate for each dilution of phospholipid. To this, 2 μl of 0.75 μM 6XHIS-ARV1-N98 was added, followed by 2 μl of biotinylated phospholipid. Immediately following each addition loaded into the plate, the plate was centrifuged for 1 min at 1000 rpm to bring the contents to the bottom of the well. Next, detection antibodies were mixed with detection buffer (20 mM Hepes buffer, pH 8.5, containing 0.01% BSA and 200 mM KF). Antibodies were a MAb anti-6XHIS Europium kryptate-conjugated D1 fluorescent antibody (Cisbio, #61HISKLA) and Streptavidin-conjugated d2 fluorescent antibody (Cisbio, #610SADLA). For each 1000 μl of detection buffer, 5 μl of each antibody was added just prior to loading 10 μl into each well. The plate was again centrifuged for 1 min at 1000 rpm and stored in a sealed container overnight, in the dark. Plates were read on a PerkinElmer EnVision Xcite Multilabel plate reader.
(§3) Curves were logarithmically transformed and normalized to a common scale before being fit with a nonlinear regression of the agonist against the normalized response. This generated half maximal effective concentration values (EC50; M) that could then be compared between different lipids. In the context of our study, EC50 values were defined as a measure of protein sensitivity to binding to a particular lipid within a dose response curve. For phospholipid competition analysis, IC50; M values were determined using nonlinear regression of the inhibitor against normalized response.

6XHIS-N98 K54/K59A = biological target: T3, 6XHIS-N98 K54/K59A (Homo sapiens, UniProt Q9H2C2, K54A/K59A); experiment: HTRF phospholipid lipid-binding assay, mutant; set-up: key: NC, no change; conditions: biotinylated lipid; NC = no change vs N98
T3 construct: made in house; host or cells: E. coli BL21
T3 sequence (Q9H2C2 1-98 K54A/K59A): T2 sequence (Q9H2C2 1-98 C58A/C61A) with K54A, A58C, K59A, A61C
Source text: as §1, §2, §3

6XHIS-N98 D72A = biological target: T4, 6XHIS-N98 D72A (Homo sapiens, UniProt Q9H2C2, D72A); experiment: HTRF phospholipid lipid-binding assay, mutant; set-up: key: NC, no change; conditions: biotinylated lipid; NC = no change vs N98
T4 construct: made in house; host or cells: E. coli BL21
T4 sequence (Q9H2C2 1-98 D72A): T2 sequence (Q9H2C2 1-98 C58A/C61A) with A58C, A61C, D72A
Source text: as §1, §2, §3

6XHIS-N98 C34/37A = biological target: T5, 6XHIS-N98 C34/37A (Homo sapiens, UniProt Q9H2C2, C34A/C37A); experiment: HTRF phospholipid lipid-binding assay, mutant; set-up: key: NC, no change; conditions: biotinylated lipid; NC = no change vs N98
T5 construct: made in house; host or cells: E. coli BL21
T5 sequence (Q9H2C2 1-98 C34A/C37A): T2 sequence (Q9H2C2 1-98 C58A/C61A) with C34A, C37A, A58C, A61C
Source text: as §1, §2, §3

6XHIS-N98 E70A = biological target: T6, 6XHIS-N98 E70A (Homo sapiens, UniProt Q9H2C2, E70A); experiment: HTRF phospholipid lipid-binding assay, mutant; set-up: key to Bio-PL, EC50, M ± S.D.: NC, no change; conditions: biotinylated lipid, NC = no change vs N98
T6 construct: made in house; host or cells: E. coli BL21
T6 sequence (Q9H2C2 1-98 E70A): T2 sequence (Q9H2C2 1-98 C58A/C61A) with A58C, A61C, E70A
Source text: as §1, §2, §3

| Compound | binding to PC:PL liposomes [1] | Bio-PL, EC50, M ± S.D. (6XHIS-N98 C58/61A) | Bio-PL, EC50, M ± S.D. (6XHIS-N98 K54/K59A) | Bio-PL, EC50, M ± S.D. (6XHIS-N98 D72A) | Bio-PL, EC50, M ± S.D. (6XHIS-N98 C34/37A) | Bio-PL, EC50, M ± S.D. (6XHIS-N98 E70A) | EC50 (6XHIS-N98 E70A; read-out: Bio-PL, EC50, M ± S.D.) |
| --- | --- | --- | --- | --- | --- | --- | --- |
| CCCCC/C=C\C/C=C\CCCCCCCC(=O)OC[C@H](COP(=O)(O)OCC(O)COP(=O)(O)OC[C@@H](COC(=O)CCCCCCC/C=C\C/C=C\CCCCC)OC(=O)CCCCCCC/C=C\C/C=C\CCCCC)OC(=O)CCCCCCC/C=C\C/C=C\CCCCC (stereo partly drawn) [CL, cardiolipin] | bound | NC | NC | NC | NC | NC |  |
| CCCCCCCC/C=C\CCCCCCCC(=O)OC[C@H](COP(=O)(O)OCC(O)CO)OC(=O)CCCCCCC/C=C\CCCCCCCC (stereo partly drawn) [PG, phosphatidylglycerol] | bound | NC | reduced | NC | reduced | NC |  |
| phosphatidylethanolamine [PE] | Neither | NC | NC | NC | NC |  | 190 nM |
| phosphatidylcholine [PC] | very weakly | NC | NC | NC | NC | NC |  |
| CCCCCCCCCCCCCCCC(=O)OC[C@H](COP(=O)(O)O)OC(=O)CCCCCCCCCCCCCCC [PA, phosphatidic acid] | bound | reduced binding | reduced binding | reduced binding | increased | reduced binding |  |
| CCCCCCCCCCCCCCCCCC(=O)OC[C@H](COP(=O)(O)OC[C@H](N)C(=O)O)OC(=O)CCCCCCCCCCCCCCCCC [PS, phosphatidylserine] | bound | NC | NC | NC | NC | NC |  |
| CCCCCC(=O)O[C@H](COC(=O)CCCCCNC(=O)CCCC[C@@H]1SC[C@@H]2NC(=O)N[C@@H]21)COP(=O)(O)O[C@H]1[C@H](O)[C@@H](O)[C@H](OP(=O)(O)O)[C@@H](O)[C@H]1O [reference compound] |  | weakened |  | weakened |  | weakened |  |

— publication PMC11952846, “The sterol-regulating human ARV1 binds cholesterol and phospholipids through its conserved ARV1 homology domain” (The Journal of Biological Chemistry, 2025)
